Reference: US6713506B2, “Tea polyphenol esters and analogs thereof for cancer prevention and treatment” (University of South Florida, priority 2000, dated 2004)
“Also recorded” adds a separate entry of the source.

Columns and labels:
[1] = biological target: T1, trypsin-like activity in living Jurkat T cells (Homo sapiens, UniProt Q99436); experiment: Proteasome trypsin-like activity in living Jurkat T cells; assay type: cell-based
T1 construct: endogenous in cells; host or cells: Jurkat T cells (whole cell extract or intact cells)
Protocol: (§1) Inhibition of the proteasome activity in living cells by tea polyphenols—To measure inhibition of the chymotrypsin-like activity in living tumor cells, Jurkat T (1×10^5 cells/ml/well), MCF7 or PC-3 cells (1×10^4 cells/ml/well) are cultured in 24-well plates. These cells are first incubated for 12 h with various concentrations of EGCG, EGC, β-lactone or LLnL, followed by an additional 2 h-incubation with fluorogenic peptide substrates, Suc-Leu-Leu-Val-Tyr-AMC for the chymotrypsin-like activity and Z-Gly-Gly-Arg-AMC for the trypsin-like activity. After that, cell medium (200 μl per sample) is collected and used for measurement of free AMCs.

[2] = biological target: T2, chymotrypsin-like activity in living prostate (PC-3) cancer cells (Homo sapiens, UniProt P28074); experiment: Proteasome chymotrypsin-like activity in living PC-3 cells; assay type: cell-based
T2 construct: endogenous in cells; host or cells: PC-3 cells (intact)
Protocol: as §1
(b) The peptide substrate for the proteasomal chymotrypsin-like activity, Suc-Leu-Leu-Val-Tyr-AMC, is used to measure the proteasome activity in intact Jurkat, MCF-7 and PC-3 cells, which is inhibitable by co-incubation with EGCG (FIG. 16C). A similar assay is performed to measure potency and selectivity of EGCG (vs. EGC) or ECG (vs. EC) in the selected cell lines. […] After that, medium is collected and the liberated AMCs in the medium are measured by fluorometer to measure in vivo potency and selectivity of tea polyphenols.

[3] = tested on: p27 and IκB-α in LNCaP cells; experiment: Western blot of proteasome substrates in LNCaP cells; assay type: cell-based, human; conditions: 1 or 10 μM, 12 h
Protocol: FIG. 5. Western blot analysis. A, Jurkat T cells are treated with 1 or 10 μM of EGCG or EGC for 12 h, or B, C, 25 μM of EGCG for various times, followed by Western blot assay using specific antibodies to p27, IκB-α, ubiquitin or actin, as indicated. MWs of IκB-α and actin are 40 and 43 kDa, respectively. The band of 56 kDa, indicated by an arrow in (B), is an ubiquitinated or phosphorylated form of IκB-α. The bands indicated in (C) are ubiquitin-containing proteins. D, LNCaP cells are treated with 1 or 10 μM of EGCG for 12 h. Western bot is performed as described above. E, F, Jurkat T cells are pretreated with 10 μg/ml cycloheximide for 2 hr, followed by co-incubation with 1 or 10 μM of EGCG for 8 or 12 hr as indicated. The p70 is a putative ubiquitinated p27-containing complex (An et al., 1998, Cell Death Differ 5: 1062-75).
Western blot analysis—Western blot assay is performed as described previously (An et al., (1998) Cell Death Differ 5(12), 1062-75) using specific antibodies to p27^Kip (monoclonal; Pharmingen), IκB-α (polyclonal; Santa Cruz), ubiquitin (polyclonal; Sigma) or actin (polyclonal; Santa Cruz). In brief, Jurkat T or LNCaP cells are treated with EGCG or EGC in dose-response or time-dependent manner. Cells are harvested and lysated using the whole lysis buffer. […] Immunocomplexes are detected using the ECL detection reagents kit (Amersham, Piscataway, N.J.).

[4] = tested on: LNCaP prostate cancer cells; experiment: Cell cycle analysis by flow cytometry, LNCaP cells; assay type: cell-based, human; conditions: 10 μM, 36 h
Protocol: (§2) FIG. 6. Cell cycle analysis. Asynchronous Jurkat, LNCaP, WI-38, and VA-13 cells are treated with 10 μM EGCG and harvested at the time points indicated. Cells are prepared and analyzed by flow cytometry as described in the The Materials and Methods section of Example 1. Growth arrest is determined by the increase in the percentage of G1 population.
(§3) Cell cycle analysis—Cell cycle analysis based on DNA content is performed as follows. Cells are harvested, counted and washed twice with PBS. Cells (5×10^6 ) are then suspended in 0.5 ml PBS, pipetted and fixed in 5 ml of 70% ethanol for at least 2 h at −20° C. Cells are centrifuged, resuspended in 1 ml of propidium iodide staining solution (50 μg propidium iodide, 100 units RNase A and 1 mg glucose per ml PBS) and incubated at room temperature for 30 min. The cells are then analyzed with FACScan (Becton Dickinson Immunocytometry, CA.), ModFit LT and WinMDI V.2.8 cell cycle analysis software (Verity Software, Topsham, Me.). The cell cycle distribution is shown as the percentage of cells containing G1, S, G2, and M DNA judged by propidium iodide staining.

[5] = tested on: SV-40-transformed WI-38 cells (VA-13); experiment: Cell cycle analysis by flow cytometry, VA-13 cells; assay type: cell-based, human; conditions: VA-13, 10 μM
Protocol: as §2, §3

[6] = tested on: normal human WI-38 cells; experiment: Cell cycle analysis by flow cytometry, WI-38 cells; assay type: cell-based; conditions: WI-38, 10 μM
Protocol: as §2, §3

SMILES: O=C(O[C@@H]1Cc2c(O)cc(O)cc2O[C@@H]1c1cc(O)c(O)c(O)c1)c1cc(O)c(O)c(O)c1 [EGCG, (−)-epigallocatechin-3-gallate]
- inhibition of trypsin-like activity in living Jurkat T cells (in words) [1]: does not significantly inhibit
- inhibition of chymotrypsin-like activity in living PC-3 cells (in words) [2]: inhibitable; also recorded: inhibits
- p27 and IκB protein expression [3]: accumulated
- increase in G1 population [4]: ~25%
- increase in G1 population ([5]; 12 h): 21%
- increase in G1 population ([5]; 36 h): 33%
- decrease in G1 population ([6]; 12 h): 22%
- increase in G2/M population ([6]; 12 h): 6%
- increase in S population ([6]; 12 h): 16%
- increase in G1 population ([6]; 36 h): 22%
